Positions count from the first letter of the chain named.

Format in all cases: binding
Assay [1] addresses T1, FicD^L258D (Homo sapiens, UniProt Q9BVA6, L258D).
T1 construct: soluble ER luminal domain (residues 105 to 458) of wild-type human FicD and three mutants; 6xHis-Sumo (N, cleaved yes); made in house; host or cells: Rosetta(DE3) E. coli
T1 sequence (Q9BVA6 105-458 L258D): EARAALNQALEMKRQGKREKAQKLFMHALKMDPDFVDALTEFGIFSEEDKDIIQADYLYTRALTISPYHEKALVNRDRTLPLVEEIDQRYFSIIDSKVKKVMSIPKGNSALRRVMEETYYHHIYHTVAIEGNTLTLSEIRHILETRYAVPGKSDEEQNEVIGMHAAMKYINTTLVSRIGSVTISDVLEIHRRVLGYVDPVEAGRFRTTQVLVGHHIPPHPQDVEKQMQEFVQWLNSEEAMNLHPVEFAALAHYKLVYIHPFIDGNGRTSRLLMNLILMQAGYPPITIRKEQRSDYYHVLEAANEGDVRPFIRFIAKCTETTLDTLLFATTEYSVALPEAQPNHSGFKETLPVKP
In words: MIDAS metabolite screen, FicD^L258D. Conditions: cutoff Q < 0.05 and |Log2 corrected fold change| > 2, metabolites 5 µM. The source says: To identify small-molecule metabolite interactions with FicD, we applied an unbiased high-throughput screening approach known as MIDAS ([44]). Given the high concentrations of protein required for MIDAS screening, we purified the soluble ER luminal domain (residues 105 to 458) of wild-type human FicD and three mutants FicD^E234G, FicD^L258D, and FicD^H363A for screening (Fig. 1A). These mutants were selected based on their well-established biochemical features ([23], [24], [31]). All three are predicted to enhance detection of protein–metabolite interactions (PMIs) relative to FicD^WT through increased affinity for nucleotide substrates (FicD^E234G), improved solubility (FicD^L258D), and loss of catalytic turnover (FicD^H363A) (Fig. 1A). To decrease the potential for nonspecific small-molecule binding, we ensured the purity of our FicD proteins (SI Appendix, Fig. S1 A and B). As reported by other investigators ([24], [31]), we observe an increase in elution volume of the FicD^L258D mutant, consistent with its monomerization (SI Appendix, Fig. S1C).
Out of the 602 naturally occurring human metabolites in the MIDAS library, we applied a significance cutoff (q value < 0.05) to identify 12 PMIs with a Log2 (corrected fold change) of >2 and two PMIs with a Log2 (corrected fold change) <-2 in the FicD^WT screen (Fig. 1B and SI Appendix, Table S2). Hits were additionally triaged based on detection of multiple adducts of the metabolite in a single dataset (FPP and […] in Fig. 1B) and identification of the same metabolites across three or more of the FicD construct screens (Fig. 1C). Three chemical classes passed this initial triage: adenosine nucleotides, isoprenoid diphosphates, and thyroid hormone intermediates (Fig. 1 B and C and SI Appendix, Tables S2–S5).
22°C. Induced cultures were then harvested by centrifugation at 8000G for 15 minutes at 4°C and […]
Bacterial pellets were resuspended in 30-50mL of 50mM Tris pH 7.4/150mM NaCl/10% glycerol with one Roche cOmplete EDTA-Free Protease inhibitor cocktail tablet (cat no. COEDTAF-RO).
Triton-X100 to a final concentration of 0.2%, Chicken-egg lysozyme to a final concentration of 0.4ug/mL, and 2-5uL of Millipore Benzonase Nuclease (cat no. 70664) were added to bacterial suspension prior to sonication at 40-50% amplitude for 1-3 minutes in pulses of 5 seconds on and 30 seconds off on ice with a Sonics VCX 750 Ultrasonicator. Bacterial lysate was then clarified by centrifugation at 30,000 x g for 30 minutes at 4°C.
Clarified lysate was rotated with Qiagen NiNTA agarose beads (cat no. 30210) for 1-2 hours at 4°C. The beads were then transferred to a 15mL conical vial, resuspended in 10-15mL wash buffer (50mM Tris pH 7.4/150mM NaCl/10% glycerol/0.2% Triton-X 100/10mM imidazole), and spun down at 1000G for 1 minute at 4°C, after which the supernatant was aspirated from the beads. This washing step was repeated 2-4 times to rinse bacterial lysate from the beads prior to on-column washing. The beads were then transferred to BioRad Econopac 20mL bed volume column (cat no.
7321010) and washed with 10-15mL of wash buffer (repeated at least three times), 10mL of ATP wash (50mM Tris pH 7.4/300mM KCl/10mM MgCl2/500uM ATP, repeated once), and finally with 10-15mL wash buffer without Triton-X 100 (repeated at least three times). Protein was eluted in 500μL-1mL elution buffer (50mM Tris pH 7.5/150mM NaCl/10% glycerol/0.5% CHAPS). […]

The target of a further assay is T2, FicD^E234G (Homo sapiens, UniProt Q9BVA6, E234G).
T2 construct: soluble ER luminal domain (residues 105 to 458) of wild-type human FicD and three mutants; 6xHis-Sumo (N, cleaved yes); made in house; host or cells: Rosetta(DE3) E. coli
T2 sequence (Q9BVA6 105-458 E234G): T1 sequence (Q9BVA6 105-458 L258D) with E130G, D154L
In words: MIDAS metabolite screen, FicD^E234G. The settings on record: cutoff Q < 0.05 and |Log2 corrected fold change| > 2, metabolites 5 µM.

A further assay concerns the target T3, FicD^WT (Homo sapiens, UniProt Q9BVA6).
T3 construct: soluble ER luminal domain (residues 105 to 458) of wild-type human FicD; 6xHis-Sumo (N, cleaved yes); made in house; host or cells: Rosetta(DE3) E. coli
T3 sequence (Q9BVA6 105-458): T1 sequence (Q9BVA6 105-458 L258D) with D154L
As to the kind of experiment: MIDAS equilibrium dialysis/mass spectrometry metabolite screen, FicD^WT. Conditions: cutoff Q < 0.05 and |Log2 corrected fold change| > 2, metabolites 5 µM. Background: In equilibrium dialysis free small molecules cross a membrane that holds back macromolecules.

Assay [2] deals with T1, FicD^L258D. In words: Differential scanning fluorimetry (DSF) thermal shift with FicD^L258D. On the procedure:
Differential Scanning Fluorimetry
Thermal shift assays were performed in Biorad CfX384 Touch Real-Time PCR Detection System […]
Reactions contained 50mM HEPES pH 7.4, 200mM NaCl, 200mM KCl, 200uM DTT, 5X Invitrogen Sypro Orange (Cat no. S6650), 8-9μM protein, and indicated nucleotide, cofactor, or small molecule in a total volume of 20uL. For every experiment ‘no protein’ controls were also included with the same reaction conditions. All reactions were performed in technical triplicates. Sealed plates containing reaction mixes were centrifuged for 1-5 min at 1000 RPM prior to temperature scanning (FRET channel), which was performed from 6°C […]
DSF data was analyzed with traditional methods automated in a Python package (https://pypi.org/project/instawell/). Briefly, for each temperature, the RFU values of technical triplicates are averaged. For each timepoint, the background fluorescence was subtracted using the RFU values of the ‘no protein’ control. […]
calculated. The melting temperature (Tm) is defined as the first derivative peak value. Data

Consider `Nc1ncnc2c1ncn2[C@H]1C[C@H](O)[C@@H](COP(=O)(O)OP(=O)(O)OP(=O)(O)O)O1` [dATP], for which the “MIDAS protein-metabolite interaction (enrichment/depletion)” value is “did not pass the significance cutoff” at FicD^L258D [1], “significantly enriched” at FicD^E234G and “significantly enriched” at FicD^WT. The “maximal Tm shift at saturating ligand concentration” value on FicD^L258D [2] (FicD^L258D, 5 mM MgCl2) was ~ 7 °C. Further, on FicD^L258D [2] (FicD^L258D, 5 mM MgCl2, read-out: EC50 of DSF dose-response (ΔTm)), the 50% effective concentration (EC50) amounted to 530 µM. The “binding to FicD^L258D by DSF” value is given as “did not bind” at FicD^L258D [2] (absence of MgCl2) and “binding” at FicD^L258D [2] (presence of 5 mM MgCl2).
As to deoxyadenosine diphosphate [dADP], the “MIDAS protein-metabolite interaction (enrichment/depletion)” value at FicD^L258D [1], at FicD^E234G and at FicD^WT was “significantly enriched” throughout. The “maximal Tm shift at saturating ligand concentration” value at FicD^L258D [2] (FicD^L258D, 5 mM MgCl2) was ~ 11 °C. The “binding to FicD^L258D by DSF” value is “did not bind” at FicD^L258D [2] (absence of MgCl2) and “binding” at FicD^L258D [2] (presence of 5 mM MgCl2).

As usually defined, the EC50 is the concentration needed to bring the measured effect to its halfway point.

(Values after publication PMC12974487, “Inhibition of FicD-mediated AMPylation and deAMPylation by isoprenoid diphosphates” (Proceedings of the National Academy of Sciences of the …, 2026).)
